From ChEMBL document CHEMBL1221208, “ATP-competitive inhibitors of the mitotic kinesin KSP that function via an allosteric mechanism” (Nat Chem Biol, 2007)
Substitutions are numbered along the chain they refer to. Activity calls are given as the source filed them. No cut-off for these calls is given here.

Legend:
[1] = target: Kinesin-like protein KIF1A (Homo sapiens) (UniProt Q12756); assay: Inhibition of Kif1A at 10 uM by puruvate kinsase-lactate dehydrogenase detection system
[2] = tested on: T1, Kinesin-like protein KIF11 (Homo sapiens), P52732 [D130V]; assay: Competitive inhibition of human KSP D130V mutant with respect to ATP using varying ATP levels in presence of saturating levels of microtubule by Lineweaver-Burke plot
T1 sequence (whole entry): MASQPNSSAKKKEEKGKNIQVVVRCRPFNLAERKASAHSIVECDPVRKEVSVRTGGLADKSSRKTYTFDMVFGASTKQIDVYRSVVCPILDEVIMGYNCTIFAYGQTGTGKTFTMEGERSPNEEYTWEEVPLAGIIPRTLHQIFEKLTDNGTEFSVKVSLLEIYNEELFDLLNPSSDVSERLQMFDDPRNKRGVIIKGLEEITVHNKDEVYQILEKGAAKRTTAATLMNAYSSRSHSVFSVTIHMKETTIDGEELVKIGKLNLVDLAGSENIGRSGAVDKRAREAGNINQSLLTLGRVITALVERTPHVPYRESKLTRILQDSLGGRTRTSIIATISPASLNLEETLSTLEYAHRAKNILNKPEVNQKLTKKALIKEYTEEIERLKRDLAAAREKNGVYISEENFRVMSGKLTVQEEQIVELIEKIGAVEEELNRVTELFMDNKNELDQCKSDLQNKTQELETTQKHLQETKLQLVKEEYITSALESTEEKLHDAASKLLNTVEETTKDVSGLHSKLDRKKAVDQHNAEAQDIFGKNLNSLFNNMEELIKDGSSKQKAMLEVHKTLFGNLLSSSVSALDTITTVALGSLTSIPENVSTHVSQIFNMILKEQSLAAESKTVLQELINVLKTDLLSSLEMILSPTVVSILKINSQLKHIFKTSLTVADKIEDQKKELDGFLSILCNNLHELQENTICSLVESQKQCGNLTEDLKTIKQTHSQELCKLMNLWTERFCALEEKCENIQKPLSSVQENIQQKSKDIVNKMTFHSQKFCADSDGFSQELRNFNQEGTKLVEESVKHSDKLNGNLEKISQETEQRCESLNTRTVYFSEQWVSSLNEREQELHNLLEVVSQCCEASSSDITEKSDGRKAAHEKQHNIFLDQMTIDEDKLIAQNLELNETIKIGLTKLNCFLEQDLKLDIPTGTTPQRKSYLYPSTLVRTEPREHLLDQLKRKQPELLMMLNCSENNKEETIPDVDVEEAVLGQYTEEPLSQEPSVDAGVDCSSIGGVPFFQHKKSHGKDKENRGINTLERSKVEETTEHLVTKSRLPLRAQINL

[3] = target: T2, Kinesin-like protein KIFC1 (Homo sapiens) (UniProt Q9BW19); assay: Inhibition of HSET at 10 uM by puruvate kinsase-lactate dehydrogenase detection system
T2 sequence (whole entry): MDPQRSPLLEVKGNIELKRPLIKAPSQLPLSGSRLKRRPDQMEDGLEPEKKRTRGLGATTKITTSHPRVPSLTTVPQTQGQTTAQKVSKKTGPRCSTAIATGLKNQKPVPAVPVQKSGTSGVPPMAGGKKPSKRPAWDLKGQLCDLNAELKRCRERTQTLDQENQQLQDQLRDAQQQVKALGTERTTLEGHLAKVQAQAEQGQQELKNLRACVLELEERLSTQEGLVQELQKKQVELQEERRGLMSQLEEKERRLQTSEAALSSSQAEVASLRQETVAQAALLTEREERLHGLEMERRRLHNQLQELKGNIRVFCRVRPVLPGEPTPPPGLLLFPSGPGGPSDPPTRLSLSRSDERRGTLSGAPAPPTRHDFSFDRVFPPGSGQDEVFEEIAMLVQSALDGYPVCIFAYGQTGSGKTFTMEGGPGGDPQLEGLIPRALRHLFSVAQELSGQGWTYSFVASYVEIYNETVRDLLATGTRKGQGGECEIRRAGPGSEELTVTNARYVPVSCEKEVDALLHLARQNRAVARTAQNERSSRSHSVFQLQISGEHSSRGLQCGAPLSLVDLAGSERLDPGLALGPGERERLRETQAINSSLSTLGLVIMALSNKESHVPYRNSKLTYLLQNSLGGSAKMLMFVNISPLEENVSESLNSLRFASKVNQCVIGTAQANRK

[4] = organism: Homo sapiens; assay: Uncompetitive inhibition of human KSP KHC-L5 mutant with respect to microtubule using varying ATP levels in presence of saturating levels of microtubule by Lineweaver-Burke plot
[5] = target: Kinesin-like protein KIF11 (Homo sapiens, UniProt P52732, D130V); assay: Inhibition of human KSP D130V mutant using varying ATP levels in presence of saturating levels of microtubule by Lineweaver-Burke plot
[6] = target: T3, Kinesin-like protein KIF11 (Homo sapiens) (UniProt P52732); assay: Inhibition of Eg5 at 10 uM by puruvate kinsase-lactate dehydrogenase detection system
T3 sequence (whole entry): T1 sequence (whole entry) with V130D

Sequence of Kinesin-like protein KIF1A (Homo sapiens) (Q12756 whole entry): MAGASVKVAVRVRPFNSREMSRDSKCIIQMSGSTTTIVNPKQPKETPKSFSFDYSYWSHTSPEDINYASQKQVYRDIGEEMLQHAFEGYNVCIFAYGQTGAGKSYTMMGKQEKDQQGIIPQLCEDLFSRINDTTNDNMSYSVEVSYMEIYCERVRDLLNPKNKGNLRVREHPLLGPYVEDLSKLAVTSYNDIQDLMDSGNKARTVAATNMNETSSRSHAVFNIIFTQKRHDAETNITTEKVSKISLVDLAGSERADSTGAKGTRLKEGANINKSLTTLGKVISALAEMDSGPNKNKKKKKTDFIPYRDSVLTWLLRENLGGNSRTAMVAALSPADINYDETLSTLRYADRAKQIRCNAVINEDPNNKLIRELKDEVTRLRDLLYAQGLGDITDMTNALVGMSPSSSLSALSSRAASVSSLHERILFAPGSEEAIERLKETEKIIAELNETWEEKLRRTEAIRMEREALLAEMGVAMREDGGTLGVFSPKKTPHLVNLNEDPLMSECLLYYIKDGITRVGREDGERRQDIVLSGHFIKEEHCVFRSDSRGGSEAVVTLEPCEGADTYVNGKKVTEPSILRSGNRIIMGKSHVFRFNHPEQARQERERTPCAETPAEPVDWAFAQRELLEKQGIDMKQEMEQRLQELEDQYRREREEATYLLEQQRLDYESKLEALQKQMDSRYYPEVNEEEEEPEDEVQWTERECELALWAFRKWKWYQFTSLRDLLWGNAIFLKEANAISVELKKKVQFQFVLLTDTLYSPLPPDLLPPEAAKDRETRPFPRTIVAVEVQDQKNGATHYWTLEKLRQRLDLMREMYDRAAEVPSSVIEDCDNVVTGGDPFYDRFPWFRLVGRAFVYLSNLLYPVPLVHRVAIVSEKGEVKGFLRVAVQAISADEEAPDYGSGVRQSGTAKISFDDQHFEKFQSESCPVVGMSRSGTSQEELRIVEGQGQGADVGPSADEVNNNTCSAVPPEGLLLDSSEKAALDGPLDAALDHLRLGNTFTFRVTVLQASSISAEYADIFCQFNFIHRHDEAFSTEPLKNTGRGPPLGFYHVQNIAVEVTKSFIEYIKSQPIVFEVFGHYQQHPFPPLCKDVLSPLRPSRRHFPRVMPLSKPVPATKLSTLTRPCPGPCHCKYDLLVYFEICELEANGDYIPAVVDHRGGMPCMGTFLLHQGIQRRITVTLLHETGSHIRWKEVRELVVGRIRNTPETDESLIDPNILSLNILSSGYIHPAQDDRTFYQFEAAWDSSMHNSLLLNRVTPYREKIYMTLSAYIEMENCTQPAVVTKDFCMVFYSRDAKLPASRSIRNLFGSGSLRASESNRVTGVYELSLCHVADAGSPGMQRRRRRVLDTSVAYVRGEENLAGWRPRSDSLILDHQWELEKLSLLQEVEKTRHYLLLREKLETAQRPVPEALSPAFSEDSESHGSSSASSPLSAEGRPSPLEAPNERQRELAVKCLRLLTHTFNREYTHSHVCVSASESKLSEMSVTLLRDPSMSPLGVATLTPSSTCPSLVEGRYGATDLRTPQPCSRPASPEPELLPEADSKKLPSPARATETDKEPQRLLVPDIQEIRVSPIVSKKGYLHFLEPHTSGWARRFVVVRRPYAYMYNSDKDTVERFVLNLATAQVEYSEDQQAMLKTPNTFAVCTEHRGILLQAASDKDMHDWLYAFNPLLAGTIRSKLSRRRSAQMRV

Row | inhibition [1] [%] | inhibition [2] | inhibition [3] [%] | inhibition [4] | Ki [5] [nM] | inhibition [6] [%] | Compound
1 | 8.9 | Active | 4.1 | Active | 2.2 | 99.3 | O=C1CCc2cc(-c3ccc(C(F)(F)F)cc3)ccc2N1
2 | 8.2 | – | 4.2 | – | – | 99.6 | Cc1ccc(C(=O)N(CCCN)[C@@H](c2nc3cc(Cl)ccc3c(=O)n2Cc2ccccc2)C(C)C)cc1
3 | 12.8 | Active | 2.6 | Active | 10 | 99.4 | NC(=O)Nc1ccc(-c2ccc(C(F)(F)F)cc2)cc1F
